One series deals with T1, Human NaV1.5 (Homo sapiens, UniProt Q14524).
T1 construct: expressed in transfected cells
The experiment in a line: PatchXpress automated patch clamp, depolarized-state protocol. The class given is cell-based. To be noted: HEK 293 cells. As for the experimental part:
(§1) Sodium currents were recorded from recombinant Human Embryonic Kidney 293 cell lines stably overexpressing the respective sodium channel type (NaV1.2, 1.5, 1.4, 1.6, 1.7). Recording solutions were comprised of the following (in mM): Internal solution: 30 CsCl, 5 HEPES, 10 EGTA, 120 CsF, 5 NaF, 2 MgCl2, pH = 7.3 with CsOH; External solution 1: 40 NaCl, 120 NMDG, 1 KCl, 0.5 MgCl2, 5 HEPES, 2.7 CaCl2, pH to 7.3 with NaOH, used for NaV1.5 recordings; External solution 2: 150 NaCl, 5 KCl, 2 CaCl2, 1 MgCl2, 10 HEPES, 12 Dextrose, pH 7.3 with NaOH, used for NaV1.7, 1.6, 1.4, and 1.2 recordings.
(§2) Whole-cell currents were recorded from cells stably expressing NaV channels using the PatchXpress 7000A automated patch clamp platform (Molecular Devices, LLC; Sunnyvale, CA). A portable air-conditioning unit was installed on the PatchXpress instruments to maintain the temperature of the headstage at 21°C. Cells were voltage clamped at −60 mV for cell detection and sealing. At the start of each recording, a voltage curve and an inactivation curve was run for each cell to determine the voltage at which 50% of the channels reside in the inactivated state (V0.5 inact). The voltage curve was used to determine if the cell was adequately clamped; cells with currents larger than 10nA or with space clamp issues were not used further.
NaV1.5: Compound potency was measured in a depolarized-state protocol where the holding potential for each cell was set to V0.5inact – 20 mV. The pulse protocol consisted of an 8 sec prepulse to V0.5inact + 7 mV, followed by a 2 ms hyperpolarization to −120 mV and a 10 ms test pulse to −10 mV. First, vehicle (0.3% DMSO) was added to establish a baseline measurement. Once baseline was established, a test compound was added. Cells were exposed to compound for 5 minutes at V0.5inact – 20 mV. Compound washout was performed to measure the recovery of the sodium currents from inhibition.
(§3) Recordings were included for analysis when current amplitude reached steady-state in vehicle, compound inhibition was concentration-dependent and currents recovered during wash-out periods. Raw data from PatchXpress experiments were retrieved from the database and analyzed using the DataXpress 2 software (Molecular Devices).
(§4) At least 3 concentrations (3–9 replicates per concentration) were tested and at least one concentration had to cause 20–80% current inhibition.

A further series relates to phrenic nerve. Put plainly: Rat phrenic nerve firing assay. To be noted: rat in vivo, measured at 30 minutes. The protocol:
To determine direct effects on phrenic nerve activity, male CD rats were anesthetized and instrumented as described above for the CV/R assay. In addition, an incision was made in the ventral neck area and the right phrenic nerve identified anatomically and isolated via blunt dissection. The phrenic nerve was placed over a high impedance bipolar hook electrode and the nerve covered with mineral oil to prevent desiccation. Animals were mechanically ventilated via a tracheotomy (~10 mL/kg, 40–70 breaths/min, titrated individually to stabilize phrenic activity) following neuromuscular block (pancuronium 0.5–1 mg/kg, iv) and bilateral vagotomy to better define test agent effects on phrenic nerve activity. Anesthesia was verified repeatedly following pancuronium administration by testing the BP/HR response to noxious stimuli. Spontaneous electrical activity was continuously recorded and then later rectified and averaged to calculate frequency, width, peak height of bursts, and magnitude. Magnitude of the activity was calculated by taking the absolute value of the raw signal and then averaging that signal over 50 ms increments. The resulting average signal was then converted to magnitude by subtracting the […] for each phrenic burst complex. The resulting magnitude values were then averaged over 1 minute increments to result in the graphs shown. Figure S1 in the Supplemental Information illustrates this analytical procedure.
(§5) For in vivo CVR and phrenic nerve activity studies, all raw signals were amplified via general purposed biological amplifier (filter settings DC – 3-5 KhZ) then digitized, calibrated and collected at a minimum of 500 Hz (1000 Hz for ECG and 2000 Hz for cardiac electrograms, and 10 KHz for phrenic nerve activity) using Notocord-HEM data acquisition and analysis software. The raw signal was filtered following acquisition with a bandpass filter set to 200–800 Hz). Vehicle (100% dimethylformamdide, DMF) or compound formulated in the vehicle was administered as a 30-minute IV infusion at 0.0167 μL/g body weight/min. Doses were selected to achieve unbound plasma concentrations in range of measured Nav1.6 IC50 values when infused at 0.0167uL/g body weight/min based on measured rat clearance, plasma protein binding and Nav1.6 IC50. Exposure in rats was determined in separate pharmacokinetics experiments where compounds were administered via IV dosing.

Series [1] is described as follows: Plasma exposure in phrenic nerve activity assay. The class given is in vivo. To be noted: CD, rat, plasma, intravenous, 60 mg/kg.
From the text: as §5

Series [2] can be described thus: Plasma exposure in rat CV/R assay. Type of series: in vivo. To be noted: for concentration at 15 min / concentration at 30 min: male, CD, plasma, iv.
From the text: as §5, with “Doses were selected to achieve unbound plasma concentrations in range of measured Nav1.6 IC50 values when infused at 0.0167uL/g body weight/min based on measured rat clearance, plasma protein binding and Nav1.6 IC50.” left out

The nature of series [3]: Permeability (Papp, passive diffusion). The class given is in vitro ADME.
The next series deals with Pgp (Homo sapiens, UniProt P08183). The experiment in a line: Permeability BA/AB ratio (Pgp transport). Type of series: in vitro ADME. The note with it: not told.
For another series, the target named is Nav1.6 (Homo sapiens, UniProt Q9UQD0). Put plainly: PatchXpress automated patch clamp, hyperpolarized-state protocol. The class given is cell-based. Set-up: expressed in transfected cells. The note with it: HEK 293 cells, hyperpolarized protocol. The protocol:
as §1, §2
NaV1.7, NaV1.6, NaV1.4: Compound potency was measured in a hyperpolarized-state protocol where the holding potential for each cell was set to V0.5inact – 20 mV. A pulse train consisting of 7 consecutive double pulses, 8 second hypepolarizing prepulse to −120 mV followed by a test pulse to −10 mV was applied at a frequency of 0.1 Hz. First, vehicle (0.3% DMSO) was added to establish a baseline measurement. Once baseline was established, test compounds were added. Cells were exposed to compound for 5 minutes at 20 mV negative to V0.5inact then exposed to the same hyperpolarized voltage protocol. (no pulsing during compound incubation). A washout was performed to measure recovery of the sodium currents from inhibition.
as §3, §4
Background: Patch clamp records ionic current or voltage across a cell membrane.

Setting [4] is: rat, 30 mg/kg, rat, IV infusion, 30 mg/kg, read-out: Total [plasma].
Setting [5] is: rat, 30 mg/kg, rat, IV infusion, 30 mg/kg, read-out: Unbound [plasma].
Where [6] appears, read: rat, IV infusion, 60 mg/kg, 21–23 min, just prior to death.

Structures are written as SMILES.

Pgp, sequence (P08183 whole entry): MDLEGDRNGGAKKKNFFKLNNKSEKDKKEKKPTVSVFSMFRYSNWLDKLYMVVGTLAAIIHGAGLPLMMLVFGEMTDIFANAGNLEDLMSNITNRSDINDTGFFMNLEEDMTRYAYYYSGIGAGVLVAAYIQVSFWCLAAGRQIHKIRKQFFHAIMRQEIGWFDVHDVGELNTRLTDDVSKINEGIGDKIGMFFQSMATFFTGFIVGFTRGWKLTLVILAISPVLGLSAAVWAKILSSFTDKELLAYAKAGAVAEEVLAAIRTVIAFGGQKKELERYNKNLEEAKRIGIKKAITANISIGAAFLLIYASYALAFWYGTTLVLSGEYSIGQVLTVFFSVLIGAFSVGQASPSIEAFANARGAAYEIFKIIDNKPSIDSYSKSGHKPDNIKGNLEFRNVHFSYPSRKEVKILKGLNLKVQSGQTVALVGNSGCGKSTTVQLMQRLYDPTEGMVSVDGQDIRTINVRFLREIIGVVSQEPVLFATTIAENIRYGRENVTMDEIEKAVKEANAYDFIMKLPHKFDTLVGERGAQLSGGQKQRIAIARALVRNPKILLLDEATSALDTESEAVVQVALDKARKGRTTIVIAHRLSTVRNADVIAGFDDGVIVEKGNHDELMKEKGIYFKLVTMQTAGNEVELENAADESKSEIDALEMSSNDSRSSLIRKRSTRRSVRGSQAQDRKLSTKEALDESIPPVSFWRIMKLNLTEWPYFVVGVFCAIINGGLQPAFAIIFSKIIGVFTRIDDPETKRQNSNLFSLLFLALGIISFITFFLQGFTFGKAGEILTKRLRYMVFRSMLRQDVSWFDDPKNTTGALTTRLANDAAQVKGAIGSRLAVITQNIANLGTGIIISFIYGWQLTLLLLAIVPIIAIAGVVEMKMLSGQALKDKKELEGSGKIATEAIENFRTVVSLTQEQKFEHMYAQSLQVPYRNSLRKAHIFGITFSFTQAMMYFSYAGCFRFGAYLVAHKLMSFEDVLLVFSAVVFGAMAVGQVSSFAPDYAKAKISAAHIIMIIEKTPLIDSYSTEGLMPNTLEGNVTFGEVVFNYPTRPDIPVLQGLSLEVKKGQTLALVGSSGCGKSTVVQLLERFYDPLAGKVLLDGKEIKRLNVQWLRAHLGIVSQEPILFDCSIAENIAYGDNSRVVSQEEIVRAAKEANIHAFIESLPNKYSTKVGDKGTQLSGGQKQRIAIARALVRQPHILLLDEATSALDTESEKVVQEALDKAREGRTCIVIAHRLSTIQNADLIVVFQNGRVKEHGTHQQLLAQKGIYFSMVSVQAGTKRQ
Nav1.6, sequence (Q9UQD0 whole entry): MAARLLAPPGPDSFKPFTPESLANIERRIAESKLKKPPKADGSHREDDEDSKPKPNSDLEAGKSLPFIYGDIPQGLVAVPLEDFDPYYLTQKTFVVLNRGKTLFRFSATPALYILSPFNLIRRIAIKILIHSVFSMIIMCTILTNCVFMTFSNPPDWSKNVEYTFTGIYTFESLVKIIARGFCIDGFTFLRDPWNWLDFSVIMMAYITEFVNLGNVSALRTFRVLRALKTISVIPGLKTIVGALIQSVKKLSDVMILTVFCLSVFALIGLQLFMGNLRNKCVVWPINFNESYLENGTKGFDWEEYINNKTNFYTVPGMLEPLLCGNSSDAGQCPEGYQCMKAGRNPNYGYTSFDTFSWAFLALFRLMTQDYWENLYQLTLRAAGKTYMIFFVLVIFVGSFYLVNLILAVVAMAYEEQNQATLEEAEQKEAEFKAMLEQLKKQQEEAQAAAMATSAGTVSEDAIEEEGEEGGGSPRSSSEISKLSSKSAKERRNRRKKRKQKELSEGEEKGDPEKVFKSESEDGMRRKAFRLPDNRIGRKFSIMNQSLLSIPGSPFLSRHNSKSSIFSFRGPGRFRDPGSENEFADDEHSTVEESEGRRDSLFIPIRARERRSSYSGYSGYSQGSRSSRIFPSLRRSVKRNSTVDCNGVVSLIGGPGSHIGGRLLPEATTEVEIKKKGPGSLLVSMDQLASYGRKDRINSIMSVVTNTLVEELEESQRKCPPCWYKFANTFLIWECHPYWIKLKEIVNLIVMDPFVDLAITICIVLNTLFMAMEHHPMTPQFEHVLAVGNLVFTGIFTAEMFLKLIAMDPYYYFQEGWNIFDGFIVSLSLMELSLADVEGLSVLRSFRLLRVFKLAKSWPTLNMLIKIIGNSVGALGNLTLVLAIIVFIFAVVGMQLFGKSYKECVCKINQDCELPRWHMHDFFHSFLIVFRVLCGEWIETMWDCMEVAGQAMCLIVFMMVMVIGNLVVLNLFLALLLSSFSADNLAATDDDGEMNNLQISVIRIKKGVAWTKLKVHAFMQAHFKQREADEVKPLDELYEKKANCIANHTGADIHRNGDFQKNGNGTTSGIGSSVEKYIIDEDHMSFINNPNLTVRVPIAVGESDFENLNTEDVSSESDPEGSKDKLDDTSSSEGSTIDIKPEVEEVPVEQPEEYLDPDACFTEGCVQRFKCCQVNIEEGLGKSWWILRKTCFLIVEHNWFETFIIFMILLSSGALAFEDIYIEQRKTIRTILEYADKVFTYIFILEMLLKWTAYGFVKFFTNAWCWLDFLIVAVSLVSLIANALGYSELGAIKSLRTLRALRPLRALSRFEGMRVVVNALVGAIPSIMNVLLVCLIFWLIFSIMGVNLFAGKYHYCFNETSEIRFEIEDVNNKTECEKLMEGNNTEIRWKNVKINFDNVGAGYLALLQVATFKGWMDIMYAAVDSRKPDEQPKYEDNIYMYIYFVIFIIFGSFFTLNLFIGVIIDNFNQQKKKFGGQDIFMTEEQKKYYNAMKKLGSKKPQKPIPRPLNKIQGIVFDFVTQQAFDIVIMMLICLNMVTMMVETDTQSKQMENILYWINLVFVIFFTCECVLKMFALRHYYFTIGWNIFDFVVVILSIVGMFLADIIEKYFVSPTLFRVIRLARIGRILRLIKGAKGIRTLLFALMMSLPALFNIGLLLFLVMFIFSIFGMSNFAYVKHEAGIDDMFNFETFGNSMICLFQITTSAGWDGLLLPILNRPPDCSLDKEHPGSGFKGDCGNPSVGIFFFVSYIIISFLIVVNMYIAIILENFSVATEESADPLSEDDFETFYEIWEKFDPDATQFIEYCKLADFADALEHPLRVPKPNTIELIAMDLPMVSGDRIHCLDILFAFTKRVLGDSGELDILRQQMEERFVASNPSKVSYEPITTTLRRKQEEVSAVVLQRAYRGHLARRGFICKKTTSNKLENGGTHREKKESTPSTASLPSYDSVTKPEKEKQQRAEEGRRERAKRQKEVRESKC

The term IC50 denotes the midpoint of a concentration-inhibition curve. A higher IC50 goes with lower potency. The efflux ratio is the permeability from basolateral to apical divided by that in the opposite direction, in the common usage. Take `N#Cc1cc(S(=O)(=O)Nc2cscn2)ccc1Oc1ccc(Cl)cc1-c1ccnn1C1CNC1` [SSCI-5]: the values for the IC50 at Human NaV1.5 and against Nav1.6 were above 30 µM and 4.61 µM, respectively. For the same compound, the “percent decrease in the magnitude of the phrenic nerve signal” value in the series on phrenic nerve is 76.1%. Besides, the concentration at 15 min in series [1] (read-out: Total [plasma]) was 82.7 ± 15.2 µM; in series [1] (read-out: Unbound [plasma]), 10.6 ± 1.94 µM; in series [2] (setting [4]), 38.2 ± 1.6 µM; in series [2] (setting [5]) it was 4.9 ± 0.2 µM; in series [2] (rat, 60 mg/kg, rat, IV infusion, 60 mg/kg, read-out: Total [plasma]), 67.7 µM; in series [2] (rat, 60 mg/kg, rat, IV infusion, 60 mg/kg, read-out: Unbound [plasma]), 8.7 µM. Also, the concentration at 30 min in series [1] (read-out: Total [plasma]) is 86.2 ± 42.1 µM; in series [1] (read-out: Unbound [plasma]), 11 ± 5.39 µM; in series [2] (setting [4]), 42.1 ± 1.2 µM; in series [2] (setting [5]), 5.4 ± 0.2 µM. For the same compound, the “unbound plasma concentration just prior to death” value in series [2] (rat CV/R assay, blood samples taken just prior to death) turned out to be 19.7 µM. In addition, in series [2] (setting [6]), the “Total [plasma]” value stood at 154a μM. In series [2] (setting [6]), the “Unbound [plasma]” value is reported as 19.7a μM. For the same compound, in series [3], the Papp is 1.351 10e-6cm/s. Besides, the efflux ratio at Pgp is below 999.

The values above are taken from paper PMC9578445, “Association of respiratory failure with inhibition of NaV1.6 in the phrenic nerve” (Channels, 2022).
